Results: US20080076847A1, “Polymerizable compositions with acylgermanes as initiatiors” (IVOCLAR VIVADENT AG, priority 2006, published 2008)
Where two headings read alike, the source gives them in different places.

Assays:
[1] = Photoinitiator activity by photo-DSC
Method: The activity of the photoinitiators was measured by means of photo-DSC (Differential Scanning Calorimetry) measurements on a DSC-50 device from Shimadzu, wherein the samples were irradiated alternatively with different dental lamps (Astalis 3: halogen lamp, wavelength range 400-500 nm, intensity 530 mW/cm^2; Bluephase C8: LED, wavelength range 430-490 nm, intensity 1100 mW/cm^2; Ivoclar Vivadent AG). The activity is characterized by the time of peak maximum (tmax), the polymerization rate (RP) which corresponds to the peak height, and the double bond conversion (DBC). The respective photoinitiators were dissolved in a resin mixture of D3MA:UDMA:bis-GMA=1:1:1 and then measured in an aluminium crucible by means of DSC. […]

[2] = UV-VIS absorption maximum; type: physicochemical; settings: longest-wave maximum
[3] = known photoinitiators, longest-wave maximum; cited from earlier work
[4] = Astralis 3 lamp (400-500 nm), 0.022 mmol PI per gram of resin
[5] = Bluephase C8 lamp (430-490 nm), 0.022 mmol PI per gram of resin

SMILES	DBC (double bond conversion) [1, 4]	Rp × 10^−3 (polymerization rate) [1, 4]	DBC (double bond conversion) [1, 5]	Rp × 10^−3 (polymerization rate) [1, 5]	DBC (double bond conversion) ([1]; PI concentration 0.0014 mmol/g)	Rp × 10^−3 (polymerization rate) ([1]; PI concentration 0.0014 mmol/g)	DBC (double bond conversion) ([1]; PI concentration 0.0055 mmol/g)	Rp × 10^−3 (polymerization rate) ([1]; PI concentration 0.0055 mmol/g)	curing time compared with campherquinone/amine ([1]; resin mixture D3MA:UDMA:bis-GMA=1:1:1)	polymerization rate (Rp) compared with camphorquinone in combination with an amine accelerator ([1]; resin mixture D3MA:UDMA:bis-GMA=1:1:1, same formulation)	absorption maximum [2]	absorption maximum [3]
C[CH2][Ge]([CH2]C)([C](=O)c1ccccc1)[C](=O)c1ccccc1 [Bis-AG, bisbenzoyldiethylgermanium]	84%	99.2 mol/(l × s)	72%	98.5 mol/(l × s)	56%	61.0 mol/(l × s)	66%	85.6 mol/(l × s)	halved	almost double	418.5 nm	
CC12CCC(C(=O)C1=O)C2(C)C (stereo not drawn) [camphorquinone]												468 nm
Cc1cc(C)c(C(=O)P(=O)(C(=O)c2c(C)cc(C)cc2C)c2ccccc2)c(C)c1 [Irg 819, bis(2,4,6-trimethylbenzoyl)phenylphosphine oxide, reference compound]	59%	67.5 mol/(l × s)	45%	43.5 mol/(l × s)	42%	30.4 mol/(l × s)	48%	48.3 mol/(l × s)				397 nm
[CH3][Ge]([CH3])([CH3])[C](=O)c1ccccc1 [Mono-AG, benzoyltrimethylgermanium]	56%	51.0 mol/(l × s)	49%	48.3 mol/(l × s)	30%	16.4 mol/(l × s)	48%	36.2 mol/(l × s)			411.5 nm	
